In one experiment the target is T1, JAK3 (Homo sapiens, UniProt P52333).
T1 construct: endogenous in cells; host or cells: Molt4 (ATCC CRL-1582) and Ramos (ATCC CRL-1596) cell lysate; mixed Molt4/Ramos lysate 1:2
T1 sequence (P52333 1-1124): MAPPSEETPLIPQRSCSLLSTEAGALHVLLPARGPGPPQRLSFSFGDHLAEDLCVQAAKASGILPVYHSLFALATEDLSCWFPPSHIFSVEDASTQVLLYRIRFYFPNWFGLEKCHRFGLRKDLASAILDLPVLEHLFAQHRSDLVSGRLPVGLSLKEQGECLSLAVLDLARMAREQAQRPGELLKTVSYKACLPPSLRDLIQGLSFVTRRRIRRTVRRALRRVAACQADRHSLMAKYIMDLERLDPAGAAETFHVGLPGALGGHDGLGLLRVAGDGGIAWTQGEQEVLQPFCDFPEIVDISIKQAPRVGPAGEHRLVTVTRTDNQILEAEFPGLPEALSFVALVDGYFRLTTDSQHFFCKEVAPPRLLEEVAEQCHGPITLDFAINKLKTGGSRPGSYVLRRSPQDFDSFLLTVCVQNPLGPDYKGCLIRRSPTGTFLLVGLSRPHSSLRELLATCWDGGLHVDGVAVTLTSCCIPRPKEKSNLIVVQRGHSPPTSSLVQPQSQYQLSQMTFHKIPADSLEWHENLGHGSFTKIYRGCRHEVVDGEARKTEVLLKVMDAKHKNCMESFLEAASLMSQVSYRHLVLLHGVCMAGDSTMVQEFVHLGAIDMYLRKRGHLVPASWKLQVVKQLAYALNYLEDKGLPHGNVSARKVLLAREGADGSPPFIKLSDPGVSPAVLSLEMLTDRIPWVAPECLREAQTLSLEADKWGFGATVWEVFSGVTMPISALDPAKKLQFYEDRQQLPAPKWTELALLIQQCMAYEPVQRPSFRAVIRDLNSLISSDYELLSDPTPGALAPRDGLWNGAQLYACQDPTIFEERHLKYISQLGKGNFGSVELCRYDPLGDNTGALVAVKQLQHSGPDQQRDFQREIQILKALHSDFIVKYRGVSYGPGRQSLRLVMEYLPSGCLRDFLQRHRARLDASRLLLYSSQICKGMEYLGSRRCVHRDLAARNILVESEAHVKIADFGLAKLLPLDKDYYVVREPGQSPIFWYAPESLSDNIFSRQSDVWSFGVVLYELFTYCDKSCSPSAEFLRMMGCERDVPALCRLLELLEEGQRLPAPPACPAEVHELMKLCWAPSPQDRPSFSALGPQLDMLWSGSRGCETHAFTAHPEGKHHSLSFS
The experiment is described as follows: Kinobeads assay, JAK3 (competition binding in cell lysate, dot blot detection). The following applies: mixed Molt4/Ramos lysate. The procedure: (§1) The compounds of the present invention as described in the previous examples were tested in a Kinobeads™ assay as described for ZAP-70 (WO-A 2007/137867). Briefly, test compounds (at various concentrations) and the affinity matrix with the immobilized aminopyrido-pyrimidine ligand 24 were added to cell lysate aliquots and allowed to bind to the proteins in the lysate sample. After the incubation time the beads with captured proteins were separated from the lysate. Bound proteins were then eluted and the presence of JAK2 and JAK3 was detected and quantified using specific antibodies in a dot blot procedure and the Odyssey infrared detection system. Dose response curves for individual kinases were generated and IC50 values calculated. Kinobeads™ assays for ZAP-70 (WO-A 2007/137867) and for kinase selectivity profiling (WO-A 2006/134056) have been previously described.
(§2) 5×DP buffer: 250 mM Tris-HCl pH 7.4, 25% Glycerol, 7.5 mM MgCl2, 750 mM NaCl, 5 mM Na3VO4; filter the 5×DP buffer through a 0.22 μm filter and store in aliquots at −80° C. The 5×DP buffer is diluted with H2O to 1×DP buffer containing 1 mM DTT and 25 mM NaF.
(§3) Stock solutions of test compounds were prepared in DMSO. In a 96 well plate 30 μL solution of diluted test compounds at 5 mM in DMSO were prepared. Starting with this solution a 1:3 dilution series (9 steps) was prepared. For control experiments (no test compound) a buffer containing 2% DMSO was used.
(§4) Molt4 cells (ATCC catalogue number CRL-1582) and Ramos cells (ATCC catalogue number CRL-1596) were grown in 1 L Spinner flasks (Integra Biosciences, #182101) in suspension in RPMI 1640 medium (Invitrogen, #21875-034) supplemented with 10% Fetal Bovine Serum (Invitrogen) at a density between 0.15×10^6 and 1.2×10^6 cells/mL. Cells were harvested by centrifugation, washed once with 1×PBS buffer (Invitrogen, #14190-094) and cell pellets were frozen in liquid nitrogen and subsequently stored at −80° C. Cells were homogenized in a Potter S homogenizer in lysis buffer: 50 mM Tris-HCl, 0.8% NP40, 5% glycerol, 150 mM NaCl, 1.5 mM MgCl2, 25 mM NaF, 1 mM sodium vanadate, 1 mM DTT, pH 7.5. One complete EDTA-free tablet (protease inhibitor cocktail, Roche Diagnostics, 1873580) per 25 mL buffer was added. The material was dounced 10 times using a mechanized POTTER S, transferred to 50 mL falcon tubes, incubated for 30 minutes on ice and spun down for 10 minutes at 20,000 g at 4° C. (10,000 rpm in Sorvall SLA600, precooled). The supernatant was transferred to an ultracentrifuge (UZ)-polycarbonate tube (Beckmann, 355654) and spun for 1 hour at 100.000 g at 4° C. (33.500 rpm in Ti50.2, precooled). The supernatant was transferred again to a fresh 50 mL falcon tube, the protein concentration was determined by a Bradford assay (BioRad) and samples containing 50 mg of protein per aliquot were prepared. The samples were immediately used for experiments or frozen in liquid nitrogen and stored frozen at −80° C.
(§5) Cell lysate (approximately 50 mg protein per plate) was thawed in a water bath at room temperature and then stored on ice. To the thawed cell lysate 1×DP 0.8% NP40 buffer containing protease inhibitors (1 tablet for 25 mL buffer; EDTA-free protease inhibitor cocktail; Roche Diagnostics 1873580) was added in order to reach a final protein concentration of 10 mg/mL total protein. The diluted cell lysate was stored on ice. Mixed Molt4/Ramos lysate was prepared by combining one volume of Molt4 lysate and two volumes of Ramos lysate (ratio 1:2).
(§6) Plates were sealed and incubated for 3 hours in a cold room on a plate shaker (Heidolph tiramax 1000) at 750 rpm. Afterwards the plate was washed 3 times with 230 μL washing buffer (1×DP 0.4% NP40). The filter plate was placed on top of a collection plate (Greiner bio-one, PP-microplate 96 well V-shape, 65120) and the beads were then eluted with 20 μL of sample buffer (100 mM Tris, pH 7.4, 4% SDS, 0.00025% bromophenol blue, 20% glycerol, 50 mM DTT). […]

In the next experiment the target is T2, JAK2 (Homo sapiens, UniProt O60674).
T2 construct: endogenous in cells; host or cells: Molt4 (ATCC CRL-1582) and Ramos (ATCC CRL-1596) cell lysate; mixed Molt4/Ramos lysate 1:2
T2 sequence (O60674 whole entry): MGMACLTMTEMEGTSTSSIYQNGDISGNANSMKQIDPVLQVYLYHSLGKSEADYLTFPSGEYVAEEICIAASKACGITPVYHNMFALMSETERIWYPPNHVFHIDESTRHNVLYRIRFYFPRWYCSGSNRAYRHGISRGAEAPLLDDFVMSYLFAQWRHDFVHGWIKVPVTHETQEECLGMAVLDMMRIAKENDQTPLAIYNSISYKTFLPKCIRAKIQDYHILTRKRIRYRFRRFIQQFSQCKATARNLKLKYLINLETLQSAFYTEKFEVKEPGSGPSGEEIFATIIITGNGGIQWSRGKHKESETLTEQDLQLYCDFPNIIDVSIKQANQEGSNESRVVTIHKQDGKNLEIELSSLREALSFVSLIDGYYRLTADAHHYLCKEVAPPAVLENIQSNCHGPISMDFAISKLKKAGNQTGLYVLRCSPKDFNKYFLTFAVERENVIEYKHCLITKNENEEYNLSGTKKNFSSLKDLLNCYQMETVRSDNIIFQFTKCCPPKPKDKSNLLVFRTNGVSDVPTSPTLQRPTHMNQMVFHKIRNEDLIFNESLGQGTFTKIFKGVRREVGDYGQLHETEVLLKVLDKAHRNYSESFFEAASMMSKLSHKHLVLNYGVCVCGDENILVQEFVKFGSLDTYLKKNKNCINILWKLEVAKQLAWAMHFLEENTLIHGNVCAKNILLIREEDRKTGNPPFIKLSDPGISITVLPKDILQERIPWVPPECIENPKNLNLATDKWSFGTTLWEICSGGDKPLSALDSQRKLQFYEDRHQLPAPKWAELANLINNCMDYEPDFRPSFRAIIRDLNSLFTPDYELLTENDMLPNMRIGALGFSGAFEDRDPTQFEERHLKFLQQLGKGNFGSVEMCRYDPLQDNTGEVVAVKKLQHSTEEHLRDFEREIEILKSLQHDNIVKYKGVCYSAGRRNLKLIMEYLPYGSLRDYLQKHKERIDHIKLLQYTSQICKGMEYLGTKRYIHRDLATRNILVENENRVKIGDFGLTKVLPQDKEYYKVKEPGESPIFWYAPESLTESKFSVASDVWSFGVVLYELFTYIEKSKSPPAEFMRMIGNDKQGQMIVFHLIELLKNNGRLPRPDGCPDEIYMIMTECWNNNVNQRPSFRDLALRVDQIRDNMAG
The experiment is described as follows: Kinobeads assay, JAK2 (competition binding in cell lysate, dot blot detection). The following applies: mixed Molt4/Ramos lysate. The protocol: as §1, §2, §3, §4, §5, §6

Molecules are shown by their SMILES. Bounds are passed on as bounds.

Data on 18 compounds can be found in patent publication US20130131043A1, “PYRAZOLE COMPOUNDS AS JAK INHIBITORS” (priority 2010, published 2013).

The IC50 is the concentration that gives 50% inhibition. Low readings indicate greater potency in that assay, high ones weaker potency in that assay. Consider `Cn1cc(Nc2ncc3cnn(C4CCCNC4)c3n2)cn1` (stereo not drawn) [Example 10, N-(1-methyl-1H-pyrazol-4-yl)-1-(piperidin-3-yl)-1H-pyrazolo[3,4-d]pyrimidin-6-amine], for which the IC50 on JAK3 was 1 to 10 µM; at JAK2, > 10 µM.
`Cn1cc(Nc2ncc3cnn(C4CCNCC4)c3n2)cn1` [Example 12, N-(1-methyl-1H-pyrazol-4-yl)-1-(piperidin-4-yl)-1H-pyrazolo[3,4-d]pyrimidin-6-amine]: the 50% inhibitory concentration (IC50) is 1 to 10 µM on JAK3 and > 10 µM at JAK2.
The matching figures for `CC1CCCC(n2ncc3cnc(Nc4cnn(C)c4)nc32)C1` (stereo not drawn) [Example 13, N-(1-methyl-1H-pyrazol-4-yl)-1-(3-methylcyclohexyl)-1H-pyrazolo[3,4-d]pyrimidin-6-amine]: 0.1 to 1 µM and > 10 µM.
As to `CC1CCCC1n1ncc2cnc(Nc3cnn(C)c3)nc21` (stereo not drawn) [Example 14, N-(1-Methyl-1H-pyrazol-4-yl)-1-(2-methylcyclopentyl)-1H-pyrazolo[3,4-d]pyrimidin-6-amine], the IC50 on JAK3 was 0.1 to 1 µM; on JAK2, > 10 µM.
The matching figures for `Cn1cc(Nc2ncc3cnn(CC4CCCCC4)c3n2)cn1` [Example 16, 1-(Cyclohexylmethyl)-N-(1-methyl-M-pyrazol-4-yl)-1H-pyrazolo[3,4-d]pyrimidin-6-amine]: < 0.1 µM and 1 to 10 µM.
The matching figures for `CC(C1CCCCC1)n1ncc2cnc(Nc3cnn(C)c3)nc21` (stereo not drawn) [Example 17, 1-(1-Cyclohexylethyl)-N-(1-methyl-M-pyrazol-4-yl)-1H-pyrazolo[3,4-d]pyrimidin-6-amine]: 0.1 to 1 µM and > 10 µM.
As for `CCC(C1CCCCC1)n1ncc2cnc(Nc3cnn(C)c3)nc21` (stereo not drawn) [Example 18, 1-(1-Cyclohexylpropyl)-N-(1-methyl-M-pyrazol-4-yl)-1H-pyrazolo[3,4-c]pyrimidin-6-amine], the half-maximal inhibitory concentration (IC50) is 0.1 to 1 µM at JAK3 and > 10 µM at JAK2.
The matching figures for `Cn1cc(Nc2ncc3cnn(C4CCCCCC4)c3n2)cn1` [Example 20, 1-Cycloheptyl-N-(1-methyl-1H-pyrazol-4-yl)-1H-pyrazolo[3,4-d]pyrimidin-6-amine]: < 0.1 µM and 1 to 10 µM.
The matching figures for `COCC(=O)N1CCCC(Cn2ncc3cnc(Nc4cnn(C)c4)nc32)C1` (stereo not drawn) [Example 21, 2-methoxy-1-(3-((6-((1-methyl-1H-pyrazol-4-yl)amino)-1H-pyrazolo[3,4-d]pyrimidin-1-yl)methyl)piperidin-1-yl)ethanone]: < 0.1 µM and > 10 µM.
`CC(=O)NC1CCC(n2ncc3cnc(Nc4cnn(C)c4)nc32)CC1` (stereo not drawn) [Example 22, N-(4-(6-((1-methyl-1H-pyrazol-4-yl)amino)-1H-pyrazolo[3,4-d]pyrimidin-1-yl)cyclohexyl)acetamide]: the IC50 fell in the range of 0.1 to 1 µM on JAK3 and 1 to 10 µM on JAK2.
The matching figures for `Cn1cc(Nc2ncc3cnn(CC4CCCN(C(=O)CCS(C)(=O)=O)C4)c3n2)cn1` (stereo not drawn) [Example 23, 1-(3-((6-((1-methyl-1H-pyrazol-4-yl)amino)-1H-pyrazolo[3,4-d]pyrimidin-1-yl)methyl)piperidin-1-yl)-3-(methylsulfonyl)propan-1-one]: < 0.1 µM and 1 to 10 µM.
For `Cn1cc(Nc2ncc3cnn(C4CCN(C(=O)CC#N)CC4)c3n2)cn1` [Example 24, 3-(4-(6-((1-methyl-1H-pyrazol-4-yl)amino)-1H-pyrazolo[3,4-d]pyrimidin-1-yl)piperidin-1-yl)-3-oxopropanenitrile] the same measures were 0.1 to 1 µM and 1 to 10 µM.
For `Cn1cc(Nc2ncc3cnn(C4CCCN(C(=O)CC#N)C4)c3n2)cn1` (stereo not drawn) [Example 25, 3-(3-(6-((1-methyl-1H-pyrazol-4-yl)amino)-1H-pyrazolo[3,4-d]pyrimidin-1-yl)piperidin-1-yl)-3-oxopropanenitrile] the same measures were 0.1 to 1 µM and > 10 µM.
As for `Cn1cc(Nc2ncc3cnn(CC4CCCN(C(=O)CC#N)C4)c3n2)cn1` (stereo not drawn) [Example 26, 3-(3-((6-((1-methyl-1H-pyrazol-4-yl)amino)-1H-pyrazolo[3,4-d]pyrimidin-1-yl)methyl)piperidin-1-yl)-3-oxopropanenitrile], the figures for the half-inhibitory concentration (IC50) on JAK3 and on JAK2 were < 0.1 µM and 1 to 10 µM, respectively.
For `COCCC(=O)N1CCCC(Cn2ncc3cnc(Nc4cnn(C)c4)nc32)C1` (stereo not drawn) [Example 27, 3-methoxy-1-(3-((6-((1-methyl-1H-pyrazol-4-yl)amino)-1H-pyrazolo[3,4-d]pyrimidin-1-yl)methyl)piperidin-1-yl)propan-1-one] the same measures were 0.1 to 1 µM and 1 to 10 µM.
The matching figures for `Cn1cc(Nc2ncc3cnn(CC4CCCN(C(=O)C5CCOCC5)C4)c3n2)cn1` (stereo not drawn) [Example 28, (3-((6-((1-methyl-1H-pyrazol-4-yl)amino)-1H-pyrazolo[3,4-d]pyrimidin-1-yl)methyl)piperidin-1-yl)(tetrahydro-2H-pyran-4-yl)methanone]: 0.1 to 1 µM and > 10 µM.
In the case of `CN(C)CC(=O)N1CCCC(Cn2ncc3cnc(Nc4cnn(C)c4)nc32)C1` (stereo not drawn) [Example 29, 2-(dimethylamino)-1-(3-((6-((1-methyl-1H-pyrazol-4-yl)amino)-1H-pyrazolo[3,4-d]pyrimidin-1-yl)methyl)piperidin-1-yl)ethanone], the figures for the IC50 on JAK3 and on JAK2 were 0.1 to 1 µM and > 10 µM, respectively.
With `Cn1cc(Nc2ncc3cnn(CCC4CCCNC4)c3n2)cn1` (stereo not drawn) [Example 30, N-(1-methyl-1H-pyrazol-4-yl)-1-(2-(piperidin-3-yl)ethyl)-1H-pyrazolo[3,4-d]pyrimidin-6-amine], the IC50 was 0.1 to 1 µM at JAK3 and > 10 µM at JAK2.
